Each block holds one compound with its values, some of them ahead of it.
Assays:
[1] = target: T1, Dual specificity tyrosine-phosphorylation-regulated kinase 3 (Homo sapiens) (UniProt O43781); assay: Percentage DYRK3 activity remaining in the presence of 2uM inhibitor
T1 sequence (whole entry): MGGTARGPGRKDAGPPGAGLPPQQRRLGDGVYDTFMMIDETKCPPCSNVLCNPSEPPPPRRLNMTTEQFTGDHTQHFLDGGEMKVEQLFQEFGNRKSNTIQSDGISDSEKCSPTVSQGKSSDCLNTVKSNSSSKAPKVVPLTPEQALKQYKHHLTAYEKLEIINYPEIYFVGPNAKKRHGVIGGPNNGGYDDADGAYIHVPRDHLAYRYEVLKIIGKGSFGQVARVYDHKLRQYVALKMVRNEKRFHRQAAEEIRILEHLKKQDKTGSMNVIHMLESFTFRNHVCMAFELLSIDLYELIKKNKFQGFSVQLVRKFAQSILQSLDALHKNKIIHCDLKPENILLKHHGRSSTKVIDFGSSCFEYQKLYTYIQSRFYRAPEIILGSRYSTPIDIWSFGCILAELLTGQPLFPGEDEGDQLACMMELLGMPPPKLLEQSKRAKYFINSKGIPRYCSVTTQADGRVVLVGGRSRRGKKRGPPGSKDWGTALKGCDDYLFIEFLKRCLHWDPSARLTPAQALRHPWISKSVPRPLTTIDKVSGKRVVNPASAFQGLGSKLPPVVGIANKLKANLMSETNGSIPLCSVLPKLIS

[2] = target: Mitogen-activated protein kinase 1 (Homo sapiens) (UniProt P28482); assay: Percentage ERK2 activity remaining in the presence of 2uM inhibitor
[3] = target: Homeodomain-interacting protein kinase 3 (Homo sapiens) (UniProt Q9H422); assay: Percentage HIPK3 activity remaining in the presence of 2uM inhibitor; settings: filed as antagonist
[4] = target: Myosin light chain kinase, smooth muscle (Homo sapiens, UniProt Q15746); assay: Percentage SmMLCK activity remaining in the presence of 2uM inhibitor
[5] = target: Dual specificity mitogen-activated protein kinase kinase 1 (Homo sapiens) (UniProt Q02750); assay: Percentage MKK1 activity remaining in the presence of 2uM inhibitor
[6] = target: MAP kinase-interacting serine/threonine-protein kinase 2 (Homo sapiens) (UniProt Q9HBH9); assay: Percentage MNK2 activity remaining in the presence of 2uM inhibitor
[7] = target: Serine/threonine-protein kinase pim-3 (Homo sapiens, UniProt Q86V86); assay: Percentage PIM3 activity remaining in the presence of 2uM inhibitor; settings: filed as antagonist
[8] = target: MAP kinase-activated protein kinase 3 (Homo sapiens) (UniProt Q16644); assay: Percentage MAPKAPK3 activity remaining in the presence of 2uM inhibitor
[9] = target: Casein kinase II (Homo sapiens) (UniProt P67870+P68400+P19784); assay: Percentage CK2 activity remaining in the presence of 2uM inhibitor; assay type: protein-complex assay
[10] = target: Proto-oncogene tyrosine-protein kinase LCK (Mus musculus) (UniProt P06240); assay: Percentage Lck activity remaining in the presence of 2uM inhibitor
[11] = target: Serine/threonine-protein kinase pim-1 (Homo sapiens, UniProt P11309); assay: Percentage PIM1 activity remaining in the presence of 2uM inhibitor
[12] = target: Proto-oncogene tyrosine-protein kinase Src (Gallus gallus) (UniProt P00523); assay: Percentage Src activity remaining in the presence of 2uM inhibitor
[13] = target: Serine/threonine-protein kinase pim-2 (Homo sapiens, UniProt Q9P1W9); assay: Percentage PIM2 activity remaining in the presence of 2uM inhibitor
[14] = target: MAP kinase-activated protein kinase 3 (Homo sapiens) (UniProt Q16644); assay: Percentage MAPKAPK3 activity remaining in the presence of 3uM inhibitor
[15] = target: Proto-oncogene tyrosine-protein kinase LCK (Mus musculus, UniProt P06240); assay: Inhibition of Lck in the presence of 50uM ATP
[16] = target: Dual specificity mitogen-activated protein kinase kinase 1 (Homo sapiens) (UniProt Q02750); assay: Percentage MKK1 activity remaining in the presence of 3uM inhibitor
[17] = target: Calcium/calmodulin-dependent protein kinase kinase 1 (Homo sapiens) (UniProt Q8N5S9); assay: Percentage CaMKKalpha activity remaining in the presence of 3uM inhibitor
[18] = target: Mitogen-activated protein kinase 1 (Homo sapiens) (UniProt P28482); assay: Percentage ERK2 activity remaining in the presence of 3uM inhibitor
Ephrin type-A receptor 2 = Ephrin type-A receptor 2 (Homo sapiens, UniProt P29317); assay: Inhibition of Eph-A2 in the presence of 50uM ATP
[19] = target: Mitogen-activated protein kinase 11 (Homo sapiens) (UniProt Q15759); assay: Percentage p38beta activity remaining in the presence of 3uM inhibitor
[20] = target: RAC-alpha serine/threonine-protein kinase (Homo sapiens) (UniProt P31749); assay: Percentage PKBalpha activity remaining in the presence of 3uM inhibitor
[21] = target: Maternal embryonic leucine zipper kinase (Homo sapiens) (UniProt Q14680); assay: Percentage MELK activity remaining in the presence of 3uM inhibitor
[22] = target: T2, Serine/threonine-protein kinase BRSK2 (Homo sapiens) (UniProt Q8IWQ3); assay: Percentage BRSK2 activity remaining in the presence of 3uM inhibitor
T2 sequence (whole entry): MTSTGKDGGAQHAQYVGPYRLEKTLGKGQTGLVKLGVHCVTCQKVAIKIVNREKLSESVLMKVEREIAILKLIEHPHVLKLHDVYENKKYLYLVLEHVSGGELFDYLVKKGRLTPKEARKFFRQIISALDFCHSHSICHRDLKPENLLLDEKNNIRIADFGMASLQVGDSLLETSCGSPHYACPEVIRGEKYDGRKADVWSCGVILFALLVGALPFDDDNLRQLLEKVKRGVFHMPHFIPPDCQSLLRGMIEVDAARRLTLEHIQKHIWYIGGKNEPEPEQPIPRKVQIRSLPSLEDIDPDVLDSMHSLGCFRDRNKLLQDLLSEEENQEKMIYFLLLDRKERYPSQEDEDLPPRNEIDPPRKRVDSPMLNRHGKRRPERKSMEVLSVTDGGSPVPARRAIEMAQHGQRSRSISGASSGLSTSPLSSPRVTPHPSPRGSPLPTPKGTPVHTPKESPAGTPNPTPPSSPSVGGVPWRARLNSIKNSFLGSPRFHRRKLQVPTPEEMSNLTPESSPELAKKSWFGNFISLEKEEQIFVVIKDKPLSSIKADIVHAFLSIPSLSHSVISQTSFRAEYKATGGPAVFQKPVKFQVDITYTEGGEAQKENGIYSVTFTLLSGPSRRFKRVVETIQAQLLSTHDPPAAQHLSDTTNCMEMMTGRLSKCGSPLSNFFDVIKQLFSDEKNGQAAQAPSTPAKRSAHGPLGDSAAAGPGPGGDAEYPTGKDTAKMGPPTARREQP

Chain of Mitogen-activated protein kinase 1 (Homo sapiens) (P28482 whole entry): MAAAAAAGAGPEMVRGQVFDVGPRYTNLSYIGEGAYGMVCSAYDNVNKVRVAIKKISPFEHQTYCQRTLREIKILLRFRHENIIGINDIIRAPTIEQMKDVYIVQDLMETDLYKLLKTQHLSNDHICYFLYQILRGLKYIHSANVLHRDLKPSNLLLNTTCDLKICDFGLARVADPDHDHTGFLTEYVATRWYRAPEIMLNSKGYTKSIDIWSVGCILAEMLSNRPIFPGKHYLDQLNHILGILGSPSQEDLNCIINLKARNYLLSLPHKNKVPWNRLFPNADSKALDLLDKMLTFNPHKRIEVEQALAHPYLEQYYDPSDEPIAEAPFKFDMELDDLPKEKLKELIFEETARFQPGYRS
Chain of MAP kinase-activated protein kinase 3 (Homo sapiens) (Q16644 whole entry, looked up): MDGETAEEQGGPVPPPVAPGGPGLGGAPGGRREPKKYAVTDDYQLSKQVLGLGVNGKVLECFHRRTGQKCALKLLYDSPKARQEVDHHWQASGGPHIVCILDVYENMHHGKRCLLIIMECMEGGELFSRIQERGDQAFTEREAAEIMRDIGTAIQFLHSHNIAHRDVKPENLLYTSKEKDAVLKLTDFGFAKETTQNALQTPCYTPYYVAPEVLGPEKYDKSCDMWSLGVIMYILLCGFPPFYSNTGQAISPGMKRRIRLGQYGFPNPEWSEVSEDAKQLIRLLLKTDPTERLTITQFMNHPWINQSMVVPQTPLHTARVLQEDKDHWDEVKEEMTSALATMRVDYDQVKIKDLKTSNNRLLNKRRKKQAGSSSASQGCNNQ
Chain of Dual specificity mitogen-activated protein kinase kinase 1 (Homo sapiens) (Q02750 whole entry): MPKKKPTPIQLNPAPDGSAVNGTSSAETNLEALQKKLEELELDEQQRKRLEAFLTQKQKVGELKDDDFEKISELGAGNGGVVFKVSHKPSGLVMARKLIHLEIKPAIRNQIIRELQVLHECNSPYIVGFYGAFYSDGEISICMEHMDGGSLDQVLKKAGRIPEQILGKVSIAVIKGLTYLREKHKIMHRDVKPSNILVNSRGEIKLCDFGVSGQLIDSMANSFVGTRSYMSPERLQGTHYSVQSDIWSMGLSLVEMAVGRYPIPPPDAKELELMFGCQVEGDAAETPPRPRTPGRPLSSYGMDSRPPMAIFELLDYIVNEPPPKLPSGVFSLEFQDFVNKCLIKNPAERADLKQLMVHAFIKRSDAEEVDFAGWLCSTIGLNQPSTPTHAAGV
Chain of Ephrin type-A receptor 2 (P29317 whole entry): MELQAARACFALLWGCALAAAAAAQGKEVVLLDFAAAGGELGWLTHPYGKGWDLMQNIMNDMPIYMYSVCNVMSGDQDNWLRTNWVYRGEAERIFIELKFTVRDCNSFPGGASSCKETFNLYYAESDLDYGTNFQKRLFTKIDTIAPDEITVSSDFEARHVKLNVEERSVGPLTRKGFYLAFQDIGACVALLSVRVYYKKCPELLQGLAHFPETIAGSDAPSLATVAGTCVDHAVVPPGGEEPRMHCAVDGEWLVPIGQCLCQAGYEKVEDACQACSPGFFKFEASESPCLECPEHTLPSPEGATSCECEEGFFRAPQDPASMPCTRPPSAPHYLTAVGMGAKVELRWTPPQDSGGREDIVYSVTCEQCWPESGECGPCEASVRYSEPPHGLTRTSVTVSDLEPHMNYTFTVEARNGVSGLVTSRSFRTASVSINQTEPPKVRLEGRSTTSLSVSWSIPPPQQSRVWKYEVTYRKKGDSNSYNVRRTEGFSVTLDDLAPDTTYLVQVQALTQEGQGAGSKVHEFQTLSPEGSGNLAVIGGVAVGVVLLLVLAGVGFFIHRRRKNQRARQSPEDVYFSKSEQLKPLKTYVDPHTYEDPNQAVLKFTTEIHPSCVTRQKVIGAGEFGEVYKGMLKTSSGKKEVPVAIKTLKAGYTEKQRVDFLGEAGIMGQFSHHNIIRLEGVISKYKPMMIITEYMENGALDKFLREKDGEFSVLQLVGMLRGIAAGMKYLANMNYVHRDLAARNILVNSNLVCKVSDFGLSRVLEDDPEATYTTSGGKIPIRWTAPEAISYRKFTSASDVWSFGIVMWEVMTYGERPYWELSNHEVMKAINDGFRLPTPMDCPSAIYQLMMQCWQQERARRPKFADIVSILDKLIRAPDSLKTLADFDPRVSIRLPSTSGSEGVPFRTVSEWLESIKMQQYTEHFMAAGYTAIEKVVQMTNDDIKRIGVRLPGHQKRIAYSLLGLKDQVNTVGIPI
Chain of Maternal embryonic leucine zipper kinase (Homo sapiens) (Q14680 whole entry, looked up): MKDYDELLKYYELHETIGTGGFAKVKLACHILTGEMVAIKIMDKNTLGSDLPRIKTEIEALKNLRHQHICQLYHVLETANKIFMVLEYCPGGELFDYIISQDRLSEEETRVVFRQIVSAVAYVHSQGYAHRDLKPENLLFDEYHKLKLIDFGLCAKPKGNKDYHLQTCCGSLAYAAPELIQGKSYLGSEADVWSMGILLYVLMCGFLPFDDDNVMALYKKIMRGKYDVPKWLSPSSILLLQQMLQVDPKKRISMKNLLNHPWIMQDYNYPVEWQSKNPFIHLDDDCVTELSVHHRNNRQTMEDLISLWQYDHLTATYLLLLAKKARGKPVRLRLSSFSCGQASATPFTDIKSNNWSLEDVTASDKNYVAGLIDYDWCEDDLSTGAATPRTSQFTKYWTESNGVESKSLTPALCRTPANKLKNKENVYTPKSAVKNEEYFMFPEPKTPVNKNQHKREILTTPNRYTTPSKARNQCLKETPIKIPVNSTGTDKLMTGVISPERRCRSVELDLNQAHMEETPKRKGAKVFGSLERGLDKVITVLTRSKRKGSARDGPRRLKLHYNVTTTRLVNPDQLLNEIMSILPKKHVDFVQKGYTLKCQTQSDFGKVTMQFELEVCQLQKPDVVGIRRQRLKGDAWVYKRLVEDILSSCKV
Chain of Proto-oncogene tyrosine-protein kinase LCK (Mus musculus) (P06240 2-509 limits assumed): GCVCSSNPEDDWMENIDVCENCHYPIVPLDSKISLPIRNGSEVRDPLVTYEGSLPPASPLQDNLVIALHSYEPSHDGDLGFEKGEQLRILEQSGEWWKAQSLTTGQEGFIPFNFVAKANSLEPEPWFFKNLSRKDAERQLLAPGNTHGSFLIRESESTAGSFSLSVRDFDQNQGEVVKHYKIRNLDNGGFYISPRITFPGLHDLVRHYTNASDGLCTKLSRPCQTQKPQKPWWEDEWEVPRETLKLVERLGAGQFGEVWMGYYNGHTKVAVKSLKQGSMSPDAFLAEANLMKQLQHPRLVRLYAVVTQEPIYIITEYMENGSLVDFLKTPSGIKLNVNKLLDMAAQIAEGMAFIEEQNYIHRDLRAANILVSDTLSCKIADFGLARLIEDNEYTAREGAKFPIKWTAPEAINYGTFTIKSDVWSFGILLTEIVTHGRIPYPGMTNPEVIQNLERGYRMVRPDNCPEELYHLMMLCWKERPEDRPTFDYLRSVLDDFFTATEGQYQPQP
Chain of Serine/threonine-protein kinase pim-2 (Q9P1W9 whole entry, looked up): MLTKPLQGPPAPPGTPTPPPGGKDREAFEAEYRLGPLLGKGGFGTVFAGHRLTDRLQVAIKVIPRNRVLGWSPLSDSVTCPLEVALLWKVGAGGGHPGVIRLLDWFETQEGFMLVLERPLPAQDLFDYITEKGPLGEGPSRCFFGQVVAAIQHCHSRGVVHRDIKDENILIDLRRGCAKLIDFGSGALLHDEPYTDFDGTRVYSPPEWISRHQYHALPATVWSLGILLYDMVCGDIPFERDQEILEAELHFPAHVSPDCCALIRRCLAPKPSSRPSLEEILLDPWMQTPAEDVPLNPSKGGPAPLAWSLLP
Chain of MAP kinase-interacting serine/threonine-protein kinase 2 (Homo sapiens) (Q9HBH9 whole entry, looked up): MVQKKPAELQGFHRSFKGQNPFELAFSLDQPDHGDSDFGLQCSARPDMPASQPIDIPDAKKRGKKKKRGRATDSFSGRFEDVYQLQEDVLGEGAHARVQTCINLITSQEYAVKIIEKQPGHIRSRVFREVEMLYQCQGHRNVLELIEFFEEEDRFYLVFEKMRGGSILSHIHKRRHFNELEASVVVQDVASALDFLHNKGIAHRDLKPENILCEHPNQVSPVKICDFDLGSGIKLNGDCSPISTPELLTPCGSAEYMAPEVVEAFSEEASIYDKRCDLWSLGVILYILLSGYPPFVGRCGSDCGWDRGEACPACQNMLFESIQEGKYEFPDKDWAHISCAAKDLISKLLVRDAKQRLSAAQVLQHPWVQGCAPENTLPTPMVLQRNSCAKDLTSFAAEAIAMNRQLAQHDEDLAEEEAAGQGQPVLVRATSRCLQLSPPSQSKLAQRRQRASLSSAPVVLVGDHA
Chain of Mitogen-activated protein kinase 11 (Homo sapiens) (Q15759 whole entry): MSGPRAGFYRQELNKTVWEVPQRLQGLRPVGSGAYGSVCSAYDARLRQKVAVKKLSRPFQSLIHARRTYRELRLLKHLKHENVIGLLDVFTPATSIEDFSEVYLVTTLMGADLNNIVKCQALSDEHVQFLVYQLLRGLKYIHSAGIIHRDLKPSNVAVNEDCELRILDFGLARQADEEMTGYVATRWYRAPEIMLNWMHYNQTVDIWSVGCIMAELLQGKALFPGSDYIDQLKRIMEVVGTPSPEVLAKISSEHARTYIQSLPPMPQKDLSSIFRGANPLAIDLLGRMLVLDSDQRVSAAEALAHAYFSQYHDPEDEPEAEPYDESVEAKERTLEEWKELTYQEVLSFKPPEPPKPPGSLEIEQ

- Activity [1]: 79%
- Activity [2]: 97%
- Activity [3]: 41%
- Activity [4]: 60%
- Activity [5]: 71%
- Activity [6]: 94%
- Activity [7]: 29%
- Activity [8]: 103%
- Activity [9]: 89%
- Activity [10]: 77%
- Activity [11]: 56%
- Activity [12]: 83%
- Activity [13]: 81%
SMILES: Cn1cc(C2=C(c3ccc(Cl)cc3Cl)C(=O)NC2=O)c2ccccc21

- Activity [14]: 92%
- IC50 [15]: 750 nM (antagonist)
- Activity [16]: 80%
- Activity [17]: 70%
- Activity [18]: 79%
- IC50 (Ephrin type-A receptor 2): 760 nM (antagonist)
- Activity [19]: 85%
- Activity [20]: 82%
- Activity [21]: 65%
- Activity [22]: 53%
SMILES: Cc1ccc(-c2c(C(=O)CF)n(CCCO)c3ncnc(N)c23)cc1
